Measured values taken from patent US4058523A, “Bis(benzamido)-benzene derivatives” (Chugai Seiyaku Kabushiki Kaisha, priority 1974, dated 1977).

Columns and labels:
Acute toxicity in mice = settings: mouse, in vivo
Method: Acute toxicity of 1-(3'-dimethylaminopropoxy)-2,4-bis(2"-methylbenzamido)-benzene, 1-(3'-dimethylaminopropoxy)-2,4-bis(3"-methylbenzamido)-benzene, 1-[N-(3-dimethylaminopropyl)-carbamoyl]-2,4-bis(2"-methylbenzamido)-benzene and 1-[N-(3'-dimethylaminopropyl)-carbamoyl]-2,4-bis(3"-methylbenzamido)-benzene were observed by the use of ddY strain male mice (5 weeks old) which were administered orally or intravenously with one of the compounds.
In the case of intravenous administration, the hydrochloride of test compound was dissolved in a physiological saline solution and administered by injecting into a vein of the tail. LD50 was determined by the "Up and Down" method.
When the administration was effected orally, the test compound was suspended in a 1% gum arabic aqueous solution and the suspension was administered orally by gavage. LD50 was determined by the Litchfield and Wilcoxon method or Miller and Tainter method based on death rate of each group of […] 10 days after the administration of the compound.

[1] = system: pylorus ligature ulcer formation; assay: Protective action on pylorus ligature ulcer formation; assay type: in vivo, Sprague-Dawley strain male rats; settings: in the duodenum, rats; for Percent Death Rate / Percent Perforating Ulcers: 16 hours after pylorus ligature
Method: Protective Action on pylorus ligature ulcer formation
The pylorus of Sprague-Dawley strain male rats weighing 150-200 g that had abstained from food, but not water for 48 hours was ligatured under ether anethsia. Each rat was allowed to stand individually in a cage for 16 hours without food and water. At the end of this term, the rats were sacrificed by an overdose of diethyl ether. The stomach was taken out of each animal and the gastric mucosa was observed by the use of a dissecting microscope.
Ulcers observed in the gastric mucosa were evaluated on a scale of from 0 to 5 defined as follows.
0: No lesion was observed.
1: Hemorrhage and/or erosion were observed.
2: One to five small ulcers less than 3 mm in diameter were observed.
3: Six or more small ulcers and/or a large ulcer more than 3 mm in diameter were observed.
4: Two or more large ulcers were observed.
5: At least one perforating ulcer was observed.
A test compound was administered as an aqueous solution in an equivalent molar of hydrochloric acid in the duodenum immediately after the pylorus ligature.

[2] = system: stress-induced ulcer formation; assay: Inhibitory action on stress-induced ulcer formation; assay type: in vivo, Sprague-Dawley strain male rats; settings: oral, rats, 10 minutes before stress
Method: Action on stress-induced ulcer formation
Sprague-Dawley strain male rats weighing 200-250 g were deprived of food for 24 hours, and then laid down on their backs on a screen and fixed by fastening their limbs with a strand. The fixed rats were submerged in water bath to the depth of ensiform process with their hind legs dipped first. Sixteen hours after the submergence, the rats were brought out from the bath and their stomachs were taken out. After light fixation with a 1% formalin aqueous solution, the stomach of each animal was cut open along their greater curvature and gastric mucosa was observed through a dissecting microscope. The ulcer was evaluated on an ulcer index calculated from the following equation: […]
wherein a is the number of big ulcers more than 3 mm in diameter and b is the number of small ulcers up to 3 mm in diameter.
A test compound was orally administered as a suspension in a 1% gum arabic aqueous solution, 10 minutes before exposure to stress.

[3] = iv, hydrochloride in physiological saline, Up and Down Method
[4] = oral, 1% gum arabic suspension, 10 days, Litchfield and Wilcoxon Method

Row | Compound | LD50 (Acute toxicity in mice; [3]) | LD50 (Acute toxicity in mice; [4]) | Percent Death Rate ([1]; 50 mg/kg) | Percent Perforating Ulcers ([1]; 50 mg/kg) | Percent Death Rate ([1]; 100 mg/kg) | Percent Perforating Ulcers ([1]; 100 mg/kg) | Percent Death Rate ([1]; 200 mg/kg) | Percent Perforating Ulcers ([1]; 200 mg/kg) | Number of Ulcers/Stomach, up to 3 mm ([2]; 30 mg/kg) | Number of Ulcers/Stomach, up to 3 mm ([2]; 45 mg/kg) | Number of Ulcers/Stomach, up to 3 mm ([2]; 67 mg/kg) | Number of Ulcers/Stomach, up to 3 mm ([2]; 100 mg/kg) | Percent Inhibition ([1]; 200 mg/kg, 16 hours, ulcer index vs control) | LD50 (Acute toxicity in mice; oral, 1% gum arabic suspension, 10 days, Miller and Tainter Method)
1 | Cc1ccccc1C(=O)Nc1ccc(OCCCN(C)C)c(NC(=O)c2ccccc2C)c1 [1-(3'-dimethylaminopropoxy)-2,4-bis(2"-methylbenzamido)-benzene] | 42 mg/kg | 2520 mg/kg | 20% | 20% | 0% | 0% | 0% | 0% | 23 | 17 | 9 | 4 | – | –
2 | Cc1cccc(C(=O)Nc2ccc(OCCCN(C)C)c(NC(=O)c3cccc(C)c3)c2)c1 [1-(3'-dimethylaminopropoxy)-2,4-bis(3"-methylbenzamido)-benzene] | 38 mg/kg | 4700 mg/kg | 33% | 50% | 0% | 0% | 0% | 0% | 21 | 9 | 7 | 11 | 75% | –
3 | Cc1ccccc1C(=O)Nc1ccc(C(=O)NCCCN(C)C)c(NC(=O)c2ccccc2C)c1 [1-[N-(3'-dimethylaminopropyl)-carbamoyl]-2,4-bis(2"-methylbenzamido)-benzene] | 111 mg/kg | – | – | – | – | – | 0% | 0% | – | – | – | 23 | – | –
4 | Cc1cccc(C(=O)Nc2ccc(C(=O)NCCCN(C)C)c(NC(=O)c3cccc(C)c3)c2)c1 [1-[N-(3'-dimethylaminopropyl)-carbamoyl]-2,4-bis(3"-methylbenzamido)-benzene] | 88 mg/kg | – | – | – | – | – | 0% | 0% | – | – | – | 17 | – | 5100 mg/kg
